SMILES strings stand for the structures. Where only a bound is given, the exact number is not on record here.

human recombinant GPR65, sequence (Q8IYL9 whole entry): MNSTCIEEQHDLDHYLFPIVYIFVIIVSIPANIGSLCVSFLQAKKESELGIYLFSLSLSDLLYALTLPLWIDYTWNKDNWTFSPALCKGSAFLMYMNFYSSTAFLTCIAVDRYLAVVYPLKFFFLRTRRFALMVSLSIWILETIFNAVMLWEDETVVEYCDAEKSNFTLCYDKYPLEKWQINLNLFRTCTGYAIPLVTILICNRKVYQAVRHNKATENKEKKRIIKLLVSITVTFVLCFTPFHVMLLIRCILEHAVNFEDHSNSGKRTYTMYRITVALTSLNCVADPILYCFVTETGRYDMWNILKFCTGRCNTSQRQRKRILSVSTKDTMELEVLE

One experiment concerns the target human recombinant GPR65 (Homo sapiens, UniProt Q8IYL9). Description: Human GPR65 cAMP HTRF antagonist assay. Format: cell-based.
Conditions: not given
The source says: In one preferred embodiment, the compound prevents the increase in cytoplasmic cAMP levels expected following GPR65 activation at acidic pH. This prevention of cAMP accumulation in turn prevents downstream signalling through ICER, as described above. The “Human GPR65 cyclic adenosine monophosphate (cAMP) Homogeneous Time Resolved Fluorescence (HTRF) antagonist assay”, or simply “cAMP assay”, as described in the accompanying examples, can be used to measure the potency of GPR65 modulators, which is expressed as the concentration of compound required to reduce the increase in cAMP concentration upon GPR65 activation by 50% (i.e. an IC50).
Human GPR65 Cyclic Adenosine Monophosphate (cAMP) Homogeneous Time Resolved Fluorescence (HTRF) Antagonist Assay Procedure
IC50 data was obtained by the following procedure:
1321N1 human astrocytoma cells stably expressing human recombinant GPR65 (1321N1-hrGPR65 cells, EuroscreenFast) were cultured according to the vendor's instructions.
Compounds were tested for their ability to antagonise GPR65, through measuring the concentration of cytoplasmic cAMP following treatment of the cells at a pH of 7.2 to activate GPR65 signalling and addition of the compound to be tested. The extent to which the expected rise in cAMP concentration upon GPR65 activation was suppressed by the added compound is indicative of its potency. The assay was carried out according to EuroscreenFast assay Methodology as follows.
On the day of the assay, test compounds were added to 384-well, low volume, white microtiter plates by acoustic dispensing. KRH buffer (5 mM KCl, 1.25 mM MgSO4, 124 mM NaCl, 25 mM HEPES, 13.3 mM Glucose, 1.25 mM KH2PO4 and 1.45 mM CaCl2) was adjusted to pH 6.5, pH 7.6 and pH 8.4 by adding NaOH. 1321N1-hGPR65 cells were rapidly thawed and diluted in KRH, pH 7.6 prior to centrifugation at 300×g for 5 min and resuspension in assay buffer (KRH, pH 7.6, supplemented with 1 mM 3-isobutyl-1-methylxanthine (IBMX) and 200 μM ethylenediaminetetraacetic acid (EDTA)). Cells were added to assay plates at a density of 2,000 cells per well in a volume of 5 μl. Assay plates were briefly centrifuged at 100×g and then incubated at room temperature for 30 min. Cells were stimulated by the addition of 5 μL KRH, pH 6.5, to achieve an assay pH of 7.2, while control wells received 5 μl KRH, pH 8.4 to achieve an assay pH of 7.9. Assay plates were briefly centrifuged at 100×g and then incubated at room temperature for 30 min.
Accumulation of cAMP was detected by cAMP HTRF kit (Cisbio). d2-labeled cAMP and cryptate-labeled anti-cAMP antibody in Lysis and Detection Buffer (Cisbio) were added to assay plates, and the plates were incubated at room temperature for 1 h. HTRF measurements were performed using a Pherastar FSX instrument. Acceptor and donor emission signals were measured at 665 nm and 620 nm, respectively, and HTRF ratios were calculated as signal665 nm/signal620 nm×10^4. Data were normalised to high and low control values and fitted with 4-parameter logistic regression to determine hGPR65 IC50 values for the test compounds, which are shown in Table 1.
For orientation: TR-FRET usually uses a lanthanide donor and a delayed reading to cut background.
For the compound `O=C(Nc1cc(Cl)c(C(F)(F)F)cc1F)N1C2CCC1C(F)c1c2ccnc1F` (mixture of isomers) [Compound 226, (±, 9-endo)-N-(5-chloro-2-fluoro-4-(trifluoromethyl)phenyl)-1,9-difluoro-6,7,8,9-tetrahydro-5H-5,8-epiminocyclohepta[c]pyridine-10-carboxamide], the IC50 (usually the concentration that gives 50% inhibition) is less than 500 nM.

Take `O=C(Nc1cc(Cl)c(C(F)(F)F)cc1F)N1C2CCC1c1n[nH]c(=O)cc1C2` (racemic) [Compound 1, (±)—N-(5-chloro-2-fluoro-4-(trifluoromethyl)phenyl)-3-oxo-3,5,6,7,8,9-hexahydro-2H-6,9-epiminocyclohepta[c]pyridazine-10-carboxamide]: the 50% inhibitory concentration (IC50) was less than 500 nM.

For `O=C(Nc1cc(Cl)c(Cl)cc1F)N1C2CCC1c1n[nH]c(=O)cc1C2` (racemic) [Compound 2, (±)-N-(4,5-Dichloro-2-fluorophenyl)-3-oxo-3,5,6,7,8,9-hexahydro-2H-6,9-epiminocyclohepta[c]pyridazine-10-carboxamide], the IC50 is less than 500 nM.

For `O=C(Nc1ccc(C(F)(F)F)c(Br)c1)N1C2CCC1c1n[nH]c(=O)cc1C2` (racemic) [Compound 3, (±)-N-(3-Bromo-4-(trifluoromethyl)phenyl)-3-oxo-3,5,6,7,8,9-hexahydro-2H-6,9-epiminocyclohepta[c]pyridazine-10-carboxamide], the half-inhibitory concentration (IC50) was less than 500 nM.

For the compound `O=C(Nc1ccc(Br)c(Cl)c1)N1C2CCC1c1n[nH]c(=O)cc1C2` (racemic) [Compound 4, (±)-N-(4-Bromo-3-chlorophenyl)-3-oxo-3,5,6,7,8,9-hexahydro-2H-6,9-epiminocyclohepta[c]pyridazine-10-carboxamide], the 50% inhibitory concentration (IC50) was less than 500 nM.

Turning to `O=C(Nc1ccc(Cl)c(Br)c1)N1C2CCC1c1n[nH]c(=O)cc1C2` (racemic) [Compound 5, (±)-N-(3-Bromo-4-chlorophenyl)-3-oxo-3,5,6,7,8,9-hexahydro-2H-6,9-epiminocyclohepta[c]pyridazine-10-carboxamide], the 50% inhibitory concentration (IC50) is less than 500 nM.

Consider `O=C(Nc1cc(Br)c(C(F)(F)F)cc1F)N1C2CCC1c1n[nH]c(=O)cc1C2` (racemic) [Compound 6, (±)-N-(5-Bromo-2-fluoro-4-(trifluoromethyl)phenyl)-3-oxo-3,5,6,7,8,9-hexahydro-2H-6,9-epiminocyclohepta[c]pyridazine-10-carboxamide], for which the half-maximal inhibitory concentration (IC50) is less than 500 nM.

On to `O=C(Nc1cc(Br)c(Cl)cc1F)N1C2CCC1c1n[nH]c(=O)cc1C2` (racemic) [Compound 7, (±)-N-(5-Bromo-4-chloro-2-fluorophenyl)-3-oxo-3,5,6,7,8,9-hexahydro-2H-6,9-epiminocyclohepta[c]pyridazine-10-carboxamide], for which the IC50 was less than 500 nM.

Consider `O=C(Nc1cc(Cl)c(Br)cc1F)N1C2CCC1c1n[nH]c(=O)cc1C2` (racemic) [Compound 8, (±)-N-(4-Bromo-5-chloro-2-fluorophenyl)-3-oxo-3,5,6,7,8,9-hexahydro-2H-6,9-epiminocyclohepta[c]pyridazine-10-carboxamide], for which the IC50 is less than 500 nM.

In the case of `O=C(Nc1ccc(OC(F)(F)F)c(Cl)c1)N1C2CCC1c1n[nH]c(=O)cc1C2` (racemic) [Compound 9, (±)-N-(3-Chloro-4-(trifluoromethoxy)phenyl)-3-oxo-3,5,6,7,8,9-hexahydro-2H-6,9-epiminocyclohepta[c]pyridazine-10-carboxamide], the IC50 is less than 500 nM.

`O=C(Nc1ccc(Br)c(C(F)(F)F)c1)N1C2CCC1c1n[nH]c(=O)cc1C2` (racemic) [Compound 10, (±)-N-(4-Bromo-3-(trifluoromethyl)phenyl)-3-oxo-3,5,6,7,8,9-hexahydro-2H-6,9-epiminocyclohepta[c]pyridazine-10-carboxamide]: the IC50 was less than 500 nM.

With `N#Cc1cc(NC(=O)N2C3CCC2c2n[nH]c(=O)cc2C3)ccc1C(F)(F)F` (racemic) [Compound 11, (±)-N-(3-Cyano-4-(trifluoromethyl)phenyl)-3-oxo-3,5,6,7,8,9-hexahydro-2H-6,9-epiminocyclohepta[c]pyridazine-10-carboxamide], the half-inhibitory concentration (IC50) is less than 500 nM.

For the compound `O=C(Nc1cc(Br)c(Cl)cc1F)N1C2CCC1c1c[nH]c(=O)nc1C2` (racemic) [Compound 15, (±)—N-(5-Bromo-4-chloro-2-fluorophenyl)-2-oxo-3,5,6,7,8,9-hexahydro-2H-5,8-epiminocyclohepta[d]pyrimidine-10-carboxamide], the concentration for half-maximal inhibition (IC50) was less than 500 nM.

As for `O=C(Nc1cc(Cl)c(Br)cc1F)N1C2CCC1c1c[nH]c(=O)nc1C2` (racemic) [Compound 16, (±)-N-(4-bromo-5-chloro-2-fluorophenyl)-2-oxo-3,5,6,7,8,9-hexahydro-2H-5,8-epiminocyclohepta[d]pyrimidine-10-carboxamide], the 50% inhibitory concentration (IC50) is less than 500 nM.

Take `O=C(Nc1cc(Br)c(C(F)(F)F)cc1F)N1C2CCC1c1c[nH]c(=O)nc1C2` (racemic) [Compound 17, (±)-N-(5-bromo-2-fluoro-4-(trifluoromethyl)phenyl)-2-oxo-3,5,6,7,8,9-hexahydro-2H-5,8-epiminocyclohepta[d]pyrimidine-10-carboxamide]: the IC50 was less than 500 nM.

Consider `O=C(Nc1cc(C(F)(F)F)on1)N1C2CCC1c1n[nH]c(=O)cc1C2` (racemic) [Compound 44, (±)-3-Oxo-N-(5-(trifluoromethyl)isoxazole-3-yl)-3,5,6,7,8,9-hexahydro-2H-6,9-epiminocyclohepta[c]pyridazine-10-carboxamide], for which the half-maximal inhibitory concentration (IC50) is less than 500 nM.

On to `O=C(Nc1cc(Cl)c(OC2CCC2)cc1F)N1C2CCC1c1n[nH]c(=O)cc1C2` (racemic) [Compound 51, (±)-N-(5-Chloro-4-cyclobutoxy-2-fluorophenyl)-3-oxo-3,5,6,7,8,9-hexahydro-2H-6,9-epiminocyclohepta[c]pyridazine-10-carboxamide], for which the IC50 was less than 500 nM.

`O=C(Nc1cc(Cl)c(F)cc1F)N1C2CCC1c1n[nH]c(=O)cc1C2` (racemic) [Compound 52, (±)-N-(5-Chloro-2,4-difluorophenyl)-3-oxo-3,5,6,7,8,9-hexahydro-2H-6,9-epiminocyclohepta[c]pyridazine-10-carboxamide]: the 50% inhibitory concentration (IC50) is less than 500 nM.

The experiment is the same for the next values; noted with them: 1321N1-hrGPR65 cells, cAMP HTRF, assay pH 7.2; read-out: hGPR65 IC50 (Activity of selected compounds according to the invention).
As for `O=C(Nc1cc(Cl)c(C(F)(F)F)cn1)N1C2CCC1c1n[nH]c(=O)cc1C2` (racemic) [Compound 12, (±)-N-(4-Chloro-5-(trifluoromethyl)pyridin-2-yl)-3-oxo-3,5,6,7,8,9-hexahydro-2H-6,9-epiminocyclohepta[c]pyridazine-10-carboxamide], the IC50 lay in the range of 500 to 5000 nM.

Turning to `CC(C)Oc1ccc(NC(=O)N2C3CCC2c2n[nH]c(=O)cc2C3)cc1Cl` (racemic) [Compound 13, (±)-N-(3-Chloro-4-isopropoxyphenyl)-3-oxo-3,5,6,7,8,9-hexahydro-2H-6,9-epiminocyclohepta[c]pyridazine-10-carboxamide], the IC50 fell in the range of 500 to 5000 nM.

As to `O=C(Nc1ccc(OC2CCC2)c(Cl)c1)N1C2CCC1c1n[nH]c(=O)cc1C2` (racemic) [Compound 14, (±)-N-(3-Chloro-4-cyclobutoxyphenyl)-3-oxo-3,5,6,7,8,9-hexahydro-2H-6,9-epiminocyclohepta[c]pyridazine-10-carboxamide], the IC50 fell in the range of 500 to 5000 nM.

For the compound `CO[C@H]1C[C@@H](Oc2ccc(NC(=O)N3C4CCC3c3n[nH]c(=O)cc3C4)cc2Cl)C1` (mixture of isomers) [Compound 36, (±)-N-(3-Chloro-4-((1s,3S)-3-methoxycyclobutoxy)phenyl)-3-oxo-3,5,6,7,8,9-hexahydro-2H-6,9-epiminocyclohepta[c]pyridazine-10-carboxamide], the IC50 is more than 5000 nM.

Regarding `N#Cc1cnc(NC(=O)N2C3CCC2c2n[nH]c(=O)cc2C3)cc1Cl` (racemic) [Compound 43, (±)-N-(4-Chloro-5-cyanopyridin-2-yl)-3-oxo-3,5,6,7,8,9-hexahydro-2H-6,9-epiminocyclohepta[c]pyridazine-10-carboxamide], the IC50 lay in the range of 500 to 5000 nM.

For the origin of these results see patent publication US20240368173A1, “TRICYCLIC GPR65 MODULATORS” (PATHIOS THERAPEUTICS LIMITED, priority 2021, published 2024).
